The source of these data is patent US9422240B2, “Partially saturated nitrogen-containing heterocyclic compound” (TAISHO PHARMACEUTICAL CO., LTD, priority 2012, dated 2016).

The test concerns the target human PHD2 (Homo sapiens (Human), UniProt Q9GZT9). Kind of test: Test 2: human PHD2 inhibitory activity, fluorescence polarization assay of HIF-1α peptide proline hydroxylation. In kind it is biochemical. Conditions: read-out: Percent inhibition (% at 1 μM). In short, it runs like this:
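A 19-mer HIF-1α peptide served as substrate, with the reaction started by 40 ng/well human PHD2 (cell lysate of NM_022051-transfected cells) and run 20 min at 30° C. before EDTA stop. Hydroxylated product bound anti-HIF-OH antibody, read by fluorescence polarization versus no-compound control.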
On the technique in general: Polarisation of emitted light reports the rotation of a fluorescent probe.

Where [1] appears, read: test compound's concentration 1 μM, Test 2, fluorescence polarization assay.

Structures are written as SMILES. Counter-ions that a name gives are not always drawn. Like-named read-outs stand apart in the source and are kept apart here.

Sequence of human PHD2 (Q9GZT9 whole entry): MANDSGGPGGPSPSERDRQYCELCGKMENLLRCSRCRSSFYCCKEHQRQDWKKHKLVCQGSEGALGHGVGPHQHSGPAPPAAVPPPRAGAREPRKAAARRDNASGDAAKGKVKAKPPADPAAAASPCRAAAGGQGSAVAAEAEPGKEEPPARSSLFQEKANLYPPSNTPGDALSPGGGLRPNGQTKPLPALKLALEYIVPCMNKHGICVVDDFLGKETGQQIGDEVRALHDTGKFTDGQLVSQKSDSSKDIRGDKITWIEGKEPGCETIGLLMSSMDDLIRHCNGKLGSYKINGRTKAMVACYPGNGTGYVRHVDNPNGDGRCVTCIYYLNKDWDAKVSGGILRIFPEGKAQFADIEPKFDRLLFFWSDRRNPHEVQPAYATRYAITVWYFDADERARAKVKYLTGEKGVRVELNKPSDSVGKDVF

On to `COc1ccccc1-c1ccc(CN2CCC(O)=C(C(=O)NCC(=O)O)C2=O)cn1` [Ex. 2-52], for which, under setting [1], the inhibition – broadly, the change of the read-out against control, counted positive when it falls – at 1 µM is 95%.

On to `COc1cncc(-c2ccc(CN3CCC(O)=C(C(=O)NCC(=O)O)C3=O)cc2)c1` [Ex. 2-53], for which the inhibition at 1 µM under setting [1] is 97%.

In the case of `COc1ccncc1-c1ccc(CN2CCC(O)=C(C(=O)NCC(=O)O)C2=O)cc1` [Ex. 2-54], under setting [1], the inhibition at 1 µM was determined as 87%.

For the compound `NS(=O)(=O)c1ccc(-c2ccc(CN3CCC(O)=C(C(=O)NCC(=O)O)C3=O)cc2)cc1` [Ex. 2-55, N-({4-Hydroxy-2-oxo-1-[(4′-sulfamoyl-4-biphenylyl)methyl]-1,2,5,6-tetrahydro-3-pyridinyl}carbonyl)glycine], under setting [1], the inhibition at 1 µM came out at 97%.

On to `CS(=O)(=O)c1ccc(-c2ccc(CN3CCC(O)=C(C(=O)NCC(=O)O)C3=O)cc2)cn1` [Ex. 2-56], for which the inhibition at 1 µM under setting [1] worked out at 92%.

For the compound `O=C(O)CNC(=O)C1=C(O)CCN(Cc2ccc(-c3ccc(S(=O)(=O)NCCO)cc3)cc2)C1=O` [Ex. 2-57], the inhibition at 1 µM under setting [1] stood at 94%.

Regarding `O=C(O)CNC(=O)C1=C(O)CCN(Cc2ccc(-c3ccc(C(=O)O)nc3)cc2)C1=O` [Ex. 2-58], under setting [1], the inhibition at 1 µM is 92%.

For `Nc1ccc(-c2ccc(CN3CCC(O)=C(C(=O)NCC(=O)O)C3=O)cc2)cn1` [Ex. 2-59], the inhibition at 1 µM under setting [1] was determined as 97%.

Turning to `O=C(O)CNC(=O)C1=C(O)CCN(Cc2ccc(-c3ccc(O)nc3)cc2)C1=O` [Ex. 2-60], the inhibition at 1 µM under setting [1] came to 96%.

In the case of `Nc1ncc(-c2ccc(CN3CCC(O)=C(C(=O)NCC(=O)O)C3=O)cc2)cn1` [Ex. 2-61], under setting [1], the inhibition at 1 µM came to 92%.

`O=C(O)CNC(=O)C1=C(O)CCN(Cc2ccc(O)cc2)C1=O` [Ex. 4-3, N-{[4-Hydroxy-1-(4-hydroxybenzyl)-2-oxo-1,2,5,6-tetrahydro-3-pyridinyl]carbonyl}glycine]: under setting [1], the inhibition at 1 µM was determined as 72%.

For `O=C(O)CNC(=O)C1=C(O)C2(CCCC2)N(Cc2ccc(-c3ccccc3)cc2)C1=O` [Ex. 6-1, N-{[1-(4-Biphenylylmethyl)-4-hydroxy-2-oxo-1-azaspiro[4.4]non-3-en-3-yl]carbonyl}glycine], the inhibition at 1 µM under setting [1] is 91%.

`C[C@H]1CC(O)=C(C(=O)NCC(=O)O)C(=O)N1Cc1ccc(OCC2CC2)cc1` [Ex. 6-2, N-({(6S)-1-[4-(Cyclopropylmethoxy)benzyl]-4-hydroxy-6-methyl-2-oxo-1,2,5,6-tetrahydro-3-pyridinyl}carbonyl)glycine sodium salt]: the inhibition at 1 µM worked out at 77%.

As for `O=C(O)CNC(=O)C1=C(O)C2(CCC2)N(Cc2ccc(-c3ccccc3)cc2)C1=O` [Ex. 6-3], the inhibition at 1 µM under setting [1] stood at 96%.

Turning to `CC1C(O)=C(C(=O)NCCC(=O)O)C(=O)N1Cc1ccc(-c2ccccc2)cc1` (stereo not drawn) [Ex. 6-4], the inhibition at 1 µM under setting [1] amounted to 10%.

As for `CC1C(O)=C(C(=O)NCC(=O)O)C(=O)N1Cc1ccc(Oc2ccc(C(F)(F)F)cn2)cc1` (stereo not drawn) [Ex. 6-5], the inhibition at 1 µM under setting [1] worked out at 97%.

As to `CC1(C)C(O)=C(C(=O)NCC(=O)O)C(=O)N1Cc1ccc(Oc2ccc(C(F)(F)F)cn2)cc1` [Ex. 6-6], the inhibition at 1 µM under setting [1] is 87%.

Regarding `O=C(O)CNC(=O)C1=C(O)CN(Cc2ccc(OCC3CC3)cc2)C1=O` [Ex. 6-7], under setting [1], the inhibition at 1 µM was found to be 86%.

Take `CC1C(O)=C(C(=O)NCC(=O)O)C(=O)N1Cc1ccc(OCC2CC2)cc1` (stereo not drawn) [Ex. 6-8]: the inhibition at 1 µM under setting [1] worked out at 83%.

As to `CC1(C)C(O)=C(C(=O)NCC(=O)O)C(=O)N1Cc1ccc(OCC2CC2)cc1` [Ex. 6-9], under setting [1], the inhibition at 1 µM is 85%.

With `O=C(O)CNC(=O)C1=C(O)C[C@H](c2ccccc2)N(Cc2ccc(OCC3CC3)cc2)C1=O` [Ex. 6-10], the inhibition at 1 µM under setting [1] is 76%.

Turning to `O=C(O)CNC(=O)C1=C(O)C[C@@H](c2ccccc2)N(Cc2ccc(OCC3CC3)cc2)C1=O` [Ex. 6-11], the inhibition at 1 µM under setting [1] came to 73%.

As for `CC1CC(O)=C(C(=O)NCC(=O)O)C(=O)N1Cc1ccc(OCC2CC2)cc1` (stereo not drawn) [Ex. 6-12], the inhibition at 1 µM under setting [1] was 67%.

Turning to `O=C(O)CNC(=O)C1=C(O)CC2(CCOCC2)N(Cc2ccc(OCC3CC3)cc2)C1=O` [Ex. 6-13], the inhibition at 1 µM under setting [1] was 81%.

For `O=C(O)CNC(=O)C1=C(O)CC2(COC2)N(Cc2ccc(OCC3CC3)cc2)C1=O` [Ex. 6-14], under setting [1], the inhibition at 1 µM was determined as 80%.

With `NC(=O)[C@H]1CC(O)=C(C(=O)NCC(=O)O)C(=O)N1Cc1ccc(OCC2CC2)cc1` [Ex. 6-15], the inhibition at 1 µM under setting [1] came to 55%.

For `NC(=O)[C@@H]1CC(O)=C(C(=O)NCC(=O)O)C(=O)N1Cc1ccc(OCC2CC2)cc1` [Ex. 6-16], under setting [1], the inhibition at 1 µM is 26%.

For `CC1(C)CC(O)=C(C(=O)NCC(=O)O)C(=O)N1CC1CCN(c2ncccn2)CC1` [Ex. 6-17], the inhibition at 1 µM under setting [1] is 32%.

On to `CC1(C)CC(O)=C(C(=O)NCC(=O)O)C(=O)N1CC1CCN(C(=O)CC2CC2)CC1` [Ex. 6-18], for which the inhibition at 1 µM under setting [1] came out at 24%.

Turning to `O=C(O)CNC(=O)C1=C(O)C[C@H](c2cccnc2)N(Cc2ccc(OCC3CC3)cc2)C1=O` [Ex. 6-19], under setting [1], the inhibition at 1 µM amounted to 72%.

Regarding `O=C(O)CNC(=O)C1=C(O)C[C@@H](c2cccnc2)N(Cc2ccc(OCC3CC3)cc2)C1=O` [Ex. 6-20], under setting [1], the inhibition at 1 µM was determined as 84%.

On to `O=C(O)CNC(=O)C1=C(O)C[C@@H](Cc2ccccc2)N(Cc2ccc(OCC3CC3)cc2)C1=O` [Ex. 6-21], for which the inhibition at 1 µM under setting [1] is 85%.

With `O=C(O)CNC(=O)C1=C(O)C[C@H](Cc2ccccc2)N(Cc2ccc(OCC3CC3)cc2)C1=O` [Ex. 6-22], the inhibition at 1 µM under setting [1] turned out to be 88%.

Consider `O=C(O)CNC(=O)C1=C(O)C2(CCCCC2)CN(Cc2ccc(OCC3CC3)cc2)C1=O` [Ex. 6-23], for which the inhibition at 1 µM under setting [1] was determined as 85%.

In the case of `O=C(O)CNC(=O)C1=C(O)CC2(CCCCC2)N(Cc2ccc(OCC3CC3)cc2)C1=O` [Ex. 6-24], the inhibition at 1 µM under setting [1] came out at 78%.

With `CC1(C)CC(O)=C(C(=O)NCC(=O)O)C(=O)N1Cc1ccc(OCC(N)=O)cc1` [Ex. 6-25], the inhibition at 1 µM under setting [1] worked out at 49%.

As for `CC1(C)CC(O)=C(C(=O)NCC(=O)O)C(=O)N1CC1CCN(Cc2ccccc2)CC1` [Ex. 6-26], under setting [1], the inhibition at 1 µM worked out at 16%.

On to `CC(C)[C@H]1CC(O)=C(C(=O)NCC(=O)O)C(=O)N1Cc1ccc(OCC2CC2)cc1` [Ex. 6-27], for which the inhibition at 1 µM under setting [1] is 51%.

For the compound `CC(C)[C@@H]1CC(O)=C(C(=O)NCC(=O)O)C(=O)N1Cc1ccc(OCC2CC2)cc1` [Ex. 6-28], the inhibition at 1 µM under setting [1] was found to be 42%.

For the compound `CC1(C)CC(O)=C(C(=O)NCC(=O)O)C(=O)N1Cc1ccc(OCC2CC2)nc1` [Ex. 6-29], the inhibition at 1 µM under setting [1] came out at 69%.

With `O=C(O)CNC(=O)C1=C(O)C[C@H](CO)N(Cc2ccc(OCC3CC3)cc2)C1=O` [Ex. 6-30], the inhibition at 1 µM under setting [1] is 45%.

`O=C(O)CNC(=O)C1=C(O)C[C@@H](CO)N(Cc2ccc(OCC3CC3)cc2)C1=O` [Ex. 6-31]: under setting [1], the inhibition at 1 µM came to 44%.

For `CC1(C)CC(O)=C(C(=O)NCC(=O)O)C(=O)N1CC1CN(c2ncccn2)C1` [Ex. 6-32], under setting [1], the inhibition at 1 µM came to 4%.

Consider `CC1(C)CC(O)=C(C(=O)NCC(=O)O)C(=O)N1Cc1ccc(OCC2CC2)nn1` [Ex. 6-33], for which the inhibition at 1 µM under setting [1] was 68%.

In the case of `COC[C@@H]1CC(O)=C(C(=O)NCC(=O)O)C(=O)N1Cc1ccc(OCC2CC2)cc1` [Ex. 6-34], the inhibition at 1 µM under setting [1] was 70%.

For the compound `CC1(C)CC(O)=C(C(=O)NCC(=O)O)C(=O)N1Cc1cnc(OCC2CC2)cn1` [Ex. 6-35], under setting [1], the inhibition at 1 µM was 60%.

Regarding `CN(C)C[C@@H]1CC(O)=C(C(=O)NCC(=O)O)C(=O)N1Cc1ccc(OCC2CC2)cc1` [Ex. 6-36], the inhibition at 1 µM under setting [1] amounted to 30%.

As to `O=C(O)CNC(=O)C1=C(O)CC2(CCN(C(=O)c3ccccc3)CC2)N(Cc2ccc(-c3ccccc3)cc2)C1=O` [Ex. 7-1, N-{[9-Benzoyl-1-(4-biphenylylmethyl)-4-hydroxy-2-oxo-1,9-diazaspiro[5.5]undec-3-en-3-yl]carbonyl}glycine], under setting [1], the inhibition at 1 µM amounted to 97%.

Take `O=C(O)CNC(=O)C1=C(O)CC2(CCN(Cc3ccccc3)CC2)N(Cc2ccc(-c3ccccc3)cc2)C1=O` [Ex. 7-2, N-{[9-Benzyl-1-(4-biphenylylmethyl)-4-hydroxy-2-oxo-1,9-diazaspiro[5.5]undec-3-en-3-yl]carbonyl}glycine trifluoroacetate]: under setting [1], the inhibition at 1 µM stood at 88%.

In the case of `O=C(O)CNC(=O)C1=C(O)CC2(CCN(C(=O)c3ccccc3)CC2)N(Cc2ccccc2)C1=O` [Ex. 7-3, N-[(9-Benzoyl-1-benzyl-4-hydroxy-2-oxo-1,9-diazaspiro[5.5]undec-3-en-3-yl)carbonyl]glycine], under setting [1], the inhibition at 1 µM was 65%.

With `COc1ccc(CN2CCC(O)=C(C(=O)NCC(=O)NO)C2=O)cc1` [Ex. 8-1, 4-Hydroxy-N-[2-(hydroxyamino)-2-oxoethyl]-1-(4-methoxybenzyl)-2-oxo-1,2,5,6-tetrahydro-3-pyridinecarboxamide], the inhibition at 1 µM under setting [1] was found to be 16%.

For the compound `COc1ccc(CN2CCC(O)=C(C(=O)NCCC(=O)O)C2=O)cc1` [Ex. 9-1, N-{[4-Hydroxy-1-(4-methoxybenzyl)-2-oxo-1,2,5,6-tetrahydro-3-pyridinyl]carbonyl}-β-alanine], the inhibition at 1 µM under setting [1] is 29%.

As for `COc1ccc(CN2CCC(O)=C(C(=O)NCCCC(=O)O)C2=O)cc1` [Ex. 9-2], under setting [1], the inhibition at 1 µM is 23%.

Take `COc1ccc(CN2CCC(O)=C(C(=O)N[C@H](C)C(=O)O)C2=O)cc1` [Ex. 9-3]: the inhibition at 1 µM under setting [1] was 1%.

As for `COc1ccc(CN2CCC(O)=C(C(=O)N[C@@H](C)C(=O)O)C2=O)cc1` [Ex. 9-4], under setting [1], the inhibition at 1 µM is 42%.

As to `COc1ccc(CN2CCC(O)=C(C(=O)N(C)CC(=O)O)C2=O)cc1` [Ex. 9-5, N-{[4-Hydroxy-1-(4-methoxybenzyl)-2-oxo-1,2,5,6-tetrahydro-3-pyridinyl]carbonyl}-N-methylglycine], the inhibition at 1 µM under setting [1] amounted to 3%.

For `CC1(C)CC(O)=C(C(=O)NCC(=O)O)C(=O)N1CC(=O)NCc1ccc(-c2ccccc2)cc1` [Ex. 10-1, N-[(1-{2-[(4-Biphenylylmethyl)amino]-2-oxoethyl}-4-hydroxy-6,6-dimethyl-2-oxo-1,2,5,6-tetrahydro-3-pyridinyl)carbonyl]glycine sodium salt], the inhibition at 1 µM turned out to be 34%.
